Experimental data taken from the supplement of paper PMC8372320.

Experiment: photocatalytic hydrogen evolution rate (per 5 mg catalyst); higher = more photocatalytic H2 evolution; extreme values may be limits of the assay
Conditions: catalyst mass (mg): 5; Pt cocatalyst (wt%): 3; sacrificial medium: triethylamine/methanol/water 1:1:1
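Also: aromatic molecules in triethylamine/methanol/water with Pt photoreduced in situ, irradiated 3 h under a 1 sun AM 1.5G solar simulator (350–1000 nm), H2 quantified by headspace gas chromatography; listed molecule itself used as the photocatalyst at 5 mg per vial.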

photocatalytic hydrogen evolution rate [µmol/h]	SMILES
0	Nc1ccc(C(c2ccc(N)cc2)(c2ccc(N)cc2)c2ccc(N)cc2)cc1
0.022	c1ccc2c(c1)c1ccccc1c1ccccc21
0.0345	Cc1cncc(C)n1
0	CN1C(=O)c2ccc3c4ccc5c6c(ccc(c7ccc(c2c37)C1=O)c64)C(=O)N(C)C5=O
0.0112	COC(=O)c1ccc(C(=O)OC)c(N)c1
0	NC(=O)c1ccc(B(O)O)cc1
0	Cc1cnc(C#N)c(C#N)n1
0	c1ccc2c(c1)Nc1ccccc1O2
0	O=C1C=CC(=O)N1c1ccccc1
0.855	OCCCCc1ccc2ccc3cccc4ccc1c2c34
0	CC(O)c1ccc2ccccc2c1 (stereo not drawn)
0.128	Brc1cc(Br)c2[nH]c3c(Br)cc(Br)cc3c2c1
0.441	O=C(O)c1ccc(-c2cc(-c3ccccn3)nc(-c3ccccn3)c2)cc1
0.957	O=Cc1cc(Br)ccc1Br
0.173	O=Cc1ccc(N2CCCC2)cc1
0	Oc1ccc2cc(Br)ccc2c1-c1c(O)ccc2cc(Br)ccc12
0	N#Cc1cc(N)c(N)cc1C#N
0	C(C#Cc1ccccc1)#Cc1ccccc1
0	CCCCCCC1(CCCCCC)c2cc(Br)ccc2-c2ccc(Br)cc21
8.89	O=Cc1ccc(-c2ccc(C=O)cc2)cc1
0	O=[N+]([O-])c1cc(Br)ccc1Br
0.055	Cc1cc(N)ccc1-c1ccc(N)cc1C
2.68	O=C1CCc2cccc(O)c21
1.46	O=Cc1ccc(N(c2ccc(C=O)cc2)c2ccc(C=O)cc2)cc1
0	O=C(O)c1c2ccccc2c(C(=O)O)c2ccccc12
0	Cc1c(C2(c3cc(Br)c(O)c(Br)c3C)OS(=O)(=O)c3ccccc32)cc(Br)c(O)c1Br

photocatalytic hydrogen evolution rate [µmol/h]	SMILES
0.896	O=Cc1ccc(O)cc1O
0	Fc1cc(Br)ccc1Br
0	O=C1CCC(c2ccccc2)CC1
0.0666	Nc1nc(Br)cnc1Br
0.0714	N#Cc1c2ccccc2c(C#N)c2ccccc12
3.11	O=Cc1ccc2ncccc2c1
0	c1ccc(-c2ccc(-c3ccc(-c4ccccc4)cc3)cc2)cc1
0	Oc1ccc2c(c1)Oc1cc(O)ccc1C21c2ccccc2-c2ccccc21
0	O=C1N=C(c2cccs2)c2c(O)[nH]c(-c3cccs3)c21
0	N#Cc1nc2c3nc(C#N)c(C#N)nc3c3nc(C#N)c(C#N)nc3c2nc1C#N
0	Nc1cccc2c(N)cccc12
0	O=Cc1ccnc(-c2cc(C=O)ccn2)c1
0	Nc1ccc(-c2nnc(-c3ccc(N)cc3)nn2)cc1
0.0661	CCc1ccc(C(=O)CC#N)cc1
0	N#CC(C#N)=c1c(F)c(F)c(=C(C#N)C#N)c(F)c1F
2.69	O=C1c2ccc(O)cc2C(=O)c2ccc(O)cc21
0	Nc1ccc(-c2c3nc(c(-c4ccc(N)cc4)c4ccc([nH]4)c(-c4ccc(N)cc4)c4nc(c(-c5ccc(N)cc5)c5ccc2[nH]5)C=C4)C=C3)cc1
0	O=C(O)c1ccc(N=Nc2ccccc2)cc1
0	Brc1sc(Br)c(Br)c1Br
0	CC(C)c1cc(C(C)C)c(-c2ccccc2P(C(C)(C)C)C(C)(C)C)c(C(C)C)c1
0.0148	Nc1nnc(Br)cc1Br
0.0555	CCCc1ccc(C(=O)CC#N)cc1
0	Cc1cc(C)cc([N+](=O)[O-])c1
1.32	C1=Cc2nc1c(-c1ccccc1)c1ccc([nH]1)c(-c1ccccc1)c1nc(c(-c3ccccc3)c3ccc([nH]3)c2-c2ccccc2)C=C1
0	O=C1c2ccccc2C(=O)C1(O)O
0	Brc1ccc(-c2ccc(Br)s2)s1

photocatalytic hydrogen evolution rate [µmol/h]	SMILES
0	O=Cc1cc(O)ccc1O
0	Cc1cc(C#N)c(C)cc1C#N
0.146	O=C(/C=C/c1ccccc1)c1ccccc1
0	CN(C)c1ccncc1
1.44	Brc1c2ccccc2c(-c2c3ccccc3c(Br)c3ccccc23)c2ccccc12
2.06	O=Cc1c2ccccc2cc2ccccc12
1.49	COC(=O)c1ccc2cc(B3OC(C)(C)C(C)(C)O3)ccc2c1
0	c1ccc2c(c1)c1ccccc1n2-c1ccc(N(c2ccc(-n3c4ccccc4c4ccccc43)cc2)c2ccc(-n3c4ccccc4c4ccccc43)cc2)cc1
0	O=C1NC(=O)c2ccc3c4ccc5c6c(ccc(c7ccc1c2c73)c64)C(=O)NC5=O
0	N#Cc1csc(Br)n1
0	O=C1c2cccc3cccc(c23)C(=O)N1O
0.0572	Brc1ccc2c3ccc(Br)cc3n(-c3ccccc3)c2c1
20.5	N#Cc1c(-n2c3ccccc3c3ccccc32)c(C#N)c(-n2c3ccccc3c3ccccc32)c(-n2c3ccccc3c3ccccc32)c1-n1c2ccccc2c2ccccc21
0	c1ccc(C(c2ccccc2)c2ccccc2)cc1
0	c1ccc2c(c1)-c1ccccc1C21c2ccccc2-c2ccccc21
0	O=c1c2ccccc2c2cc3c(=O)c4ccccc4c3cc12
2.63	Fc1c(F)c(Br)c2nsnc2c1Br
0.0237	CCOC(=O)c1ccc(C(=O)OCC)nc1
0	C(#Cc1ccccc1)c1ccccc1
0.00783	O=Cc1ccc(O)cc1
0.0838	COC(=O)c1ccc(C(=O)OC)cc1
3.33	O=c1c2ccccc2n(-c2ccccc2)c2ccccc12
1.29	Brc1ccc(Br)c2nsnc12
1.17	O=Cc1ccc(N(c2ccccc2)c2ccc(C=O)cc2)cc1
0	Brc1ccc(I)cc1
0	N#Cc1cncc(-c2cncc(C#N)c2)c1

photocatalytic hydrogen evolution rate [µmol/h]	SMILES
0.0623	COC(=O)c1ccc2cc(C(=O)OC)ccc2c1
0.139	N#Cc1ccc(C=O)nc1
0.0425	O=Cc1ccc(S(=O)(=O)c2ccccc2)cc1
0	OB(O)c1cc(Br)cc(Br)c1
0	N#Cc1ccccc1-c1ccccc1C#N
0	N#Cc1cccc(-c2ccc(N)cc2)c1
0.009	O=S1(=O)c2ccc(Br)cc2-c2cc(Br)ccc21
0	C#Cc1cc(C#C)cc(C#C)c1
0.132	CCCCCCCCCCCCC1(CCCCCCCCCCCC)c2cc(B(O)O)ccc2-c2ccc(B(O)O)cc21
0	O=c1cc(Br)[nH]c(Br)c1
0	O=Cc1ccc2nsnc2c1
0.0394	COC(=O)c1ccc(B(O)O)cc1
8.19	O=Cc1ccc(C(=O)O)cc1O
0.0382	O=Cc1ccc(O)c(F)c1
0	c1ccc(P(c2ccccc2)c2ccc3ccccc3c2-c2c(P(c3ccccc3)c3ccccc3)ccc3ccccc23)cc1
1.09	N#Cc1cccc(-c2cccc(C=O)c2)c1
0	Cc1cc2c(cc1N)S(=O)(=O)c1cc(N)c(C)cc1-2
0	Nc1c(Br)cc2[nH]cnc2c1Br
1.37	Brc1ccc(Br)c2nccnc12
0	CC1(C)OB(c2ccc(-c3cccs3)s2)OC1(C)C
0	O=Cc1cccc(O)c1O
0	Brc1ccc2cc(Br)ccc2c1
0	Cc1cc(C#N)cnc1Br
0.0311	Brc1ccc(-c2nc(-c3ccc(Br)cc3)nc(-c3ccc(Br)cc3)n2)cc1
0	N#Cc1ccc(F)c(N)c1
0.168	c1cncc(-c2nc(-c3cccnc3)nc(-c3cccnc3)n2)c1

SMILES	photocatalytic hydrogen evolution rate [µmol/h]
N#Cc1ccc(N)cc1	0
c1ccc2c(c1)cc1ccc3cccc4ccc2c1c34	0.00851
CN1CCN(c2ccc(C=O)cc2)CC1	0.409
Brc1c(Br)c(Br)c(Br)c(Br)c1Br	0
c1ccc2cc3cc4ccccc4cc3cc2c1	0.162
COc1ccc(C=O)cc1O	0
c1cc2ccc3cccc4ccc(c1)c2c34	0.198
c1ccc(-c2ccccc2)cc1	0
N#Cc1c2ccccc2cc2ccccc12	0.294
O=[N+]([O-])c1cc([N+](=O)[O-])c(F)cc1F	0
Brc1ccc(Br)cc1	0
Cc1cc(-c2cc(C)c(N)c(C)c2)cc(C)c1N	0
O=Cc1ccc2c(c1)c1ccccc1n2Cc1ccccc1	2.52
N#Cc1ccc(O)cc1	0
